Earlier results as cited in patent US20140088145A1 (Teva Pharmaceutical Industries, Ltd., priority 2012, published 2014).

Key:
[1] = test system: patients with HD
[2] = test system: Huntington's disease patients; details: 45 mg daily or 90 mg daily for 6 months
[3] = test system: Huntington's disease patients; details: twice-daily doses of 45 mg over 12 weeks
[4] = in vivo

absolute bioavailability [4]	Compound	symptomatic relief incl. hand movements, gait and balance [1]	tertiary endpoint UHDRS-TMS (changes in motor function) and individual items within the mMS (gait, dysarthria) [2]	effect on total motor function [3]
	CCCN1CCC(c2cccc(S(C)(=O)=O)c2)CC1 [pridopidine, 4-[3-(methylsulfonyl)phenyl]-1-propyl-piperidine]	significant symptomatic relief	statistically significant effect of treatment	significant effect on total motor function
about 36%	C#CCN[C@@H]1CCc2ccccc21 [rasagiline, R(+)-N-propargyl-l-aminoindan]			
